# Experimental data taken from the supplement of paper PMC10307832.
# Compound: NCC(=O)Nc1ccc(-n2nc(C(F)(F)F)cc2-c2ccc3c(ccc4ccccc43)c2)cc1 + CCNC(=O)c1noc(-c2cc(C(C)C)c(O)cc2O)c1-c1ccc(CN2CCOCC2)cc1 [Luminespib] (partner 0.01 µM)
# Assay: relative viability (nuclei count vs DMSO), 5 days (fraction); higher = more cells survive
# Settings: first compound 0.02 µM
# Outline: (§1)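 For relative viability, nuclei counts in treated wells were divided by those in vehicle wells. Lung cancer cell lines had been pin-tool dosed in 1536-well plates the day after seeding and cultured for 5 days, then fixed and stained in one step (final 0.05% Triton X-100, 1% formaldehyde, 1 ug/ml Hoechst) and imaged at 4×. Doses were one drug alone or a fixed anchor-drug dose plus five library-drug doses (not always all listed) in √10 steps, and values are duplicate-plate medians.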
row,Cell Line,relative viability
1,NCI-H1563,0.557
2,ABC-1,0.478

# Same assay, conditions: first compound 0.06325 µM
row,Cell Line,relative viability
1,NCI-H2342,0.875
2,NCI-H1623,0.425
3,NCI-H727,0.352
4,NCI-H1650,0.229
5,NCI-H1993,0.88
6,SW 1573,0.151
7,NCI-H838,0.31
8,LCLC-103H,0.919
9,NCI-H520,0.179
10,NCI-H2126,0.981
11,EMC-BAC-2,1.23
12,NCI-H2085,0.473
13,NCI-H1666,1.06
14,NCI-H596,1.02
15,LK-2,0.195
16,NCI-H2087,0.19
17,SK-MES-1,0.904
18,H3255,1.03

row,Cell Line,relative viability
1,COR-L23,0.652
2,COR-L 105,0.78
3,LOU-NH91,0.38
4,ChaGo-K-1,0.501
5,NCI-H2170,0.7
6,NCI-H2405,0.74
7,HOP-62,0.911
8,HCC-44,1.05
9,NCI-H522,1.05
10,LU99A,0.249
11,BEN,0.67
12,HARA,1.03
13,SW 900,0.187
14,NCI-H322M,0.946
15,LCLC-97TM1,0.76
16,NCI-H1563,0.523
17,ABC-1,0.813

# Same assay, conditions: first compound 0.2 µM
row,Cell Line,relative viability
1,NCI-H2342,0.75
2,NCI-H1623,0.457
3,NCI-H727,0.322
4,NCI-H1993,0.901
5,SW 1573,0.151
6,NCI-H838,0.372
7,LCLC-103H,1.03
8,NCI-H520,0.198
9,NCI-H2126,0.871
10,EMC-BAC-2,1.18
11,NCI-H2085,0.466
12,NCI-H1666,0.925
13,NCI-H596,1.06
14,LK-2,0.217
15,NCI-H2087,0.214
16,SK-MES-1,0.897
17,H3255,0.9

row,Cell Line,relative viability
1,COR-L23,0.772
2,COR-L 105,1.01
3,LOU-NH91,0.314
4,ChaGo-K-1,0.54
5,NCI-H2170,0.552
6,NCI-H2405,0.606
7,HOP-62,0.862
8,HCC-44,1.06
9,NCI-H522,1.24
10,LU99A,0.229
11,BEN,0.211
12,HARA,0.735
13,SW 900,0.188
14,NCI-H322M,0.895
15,LCLC-97TM1,0.689
16,NCI-H1563,0.588

# Same assay, conditions: first compound 0.6325 µM
row,Cell Line,relative viability
1,NCI-H2342,0.75
2,NCI-H1623,0.661
3,NCI-H727,0.32
4,NCI-H1650,0.166
5,NCI-H1993,0.784
6,SW 1573,0.677
7,NCI-H838,0.429
8,LCLC-103H,0.925
9,NCI-H520,0.239
10,NCI-H2126,0.942
11,EMC-BAC-2,1.17
12,NCI-H2085,0.445
13,NCI-H1666,1.07
14,NCI-H596,0.99
15,LK-2,0.173
16,NCI-H2087,0.138
17,SK-MES-1,0.842
18,H3255,0.777

row,Cell Line,relative viability
1,COR-L23,0.57
2,COR-L 105,0.704
3,LOU-NH91,0.339
4,ChaGo-K-1,0.548
5,NCI-H2170,0.75
6,NCI-H2405,0.732
7,HOP-62,0.9
8,HCC-44,1.03
9,NCI-H522,1.19
10,LU99A,0.238
11,BEN,0.467
12,HARA,0.484
13,SW 900,0.209
14,NCI-H322M,0.917
15,LCLC-97TM1,0.8
16,NCI-H1563,0.526
17,ABC-1,0.372

# Same assay, conditions: first compound 2 µM
row,Cell Line,relative viability
1,NCI-H2342,0.688
2,NCI-H1623,0.558
3,NCI-H727,0.401
4,NCI-H1650,0.199
5,NCI-H1993,0.957
6,SW 1573,0.209
7,NCI-H838,0.382
8,LCLC-103H,0.895
9,NCI-H520,0.229
10,NCI-H2126,0.943
11,EMC-BAC-2,1.18
12,NCI-H2085,0.472
13,NCI-H1666,0.93
14,NCI-H596,0.978
15,LK-2,0.208
16,NCI-H2087,0.196
17,SK-MES-1,0.802
18,H3255,0.984

row,Cell Line,relative viability
1,COR-L23,0.757
2,COR-L 105,1.15
3,LOU-NH91,0.352
4,ChaGo-K-1,0.567
5,NCI-H2170,0.616
6,NCI-H2405,0.746
7,HOP-62,0.951
8,HCC-44,0.938
9,NCI-H522,1.37
10,LU99A,0.19
11,BEN,0.311
12,HARA,0.818
13,SW 900,0.169
14,NCI-H322M,0.855
15,LCLC-97TM1,0.831
16,NCI-H1563,0.554
17,ABC-1,0.748

# Compound: NCC(=O)Nc1ccc(-n2nc(C(F)(F)F)cc2-c2ccc3c(ccc4ccccc43)c2)cc1 + C[C@]1(O)C[C@@H](c2nc(-c3ccc4ccc(-c5ccccc5)nc4c3)c3c(N)nccn32)C1 [Linsitinib] (partner 1 µM)
# Assay: as above
# Settings: first compound 0.02 µM
# Outline: as §1
row,Cell Line,relative viability
1,NCI-H727,0.297
2,EBC-1,0.888
3,NCI-H1703,0.718
4,NCI-H1993,0.81
5,SW 1573,0.851
6,NCI-H838,1.03
7,LCLC-103H,1.16
8,NCI-H520,1.02
9,NCI-H2126,0.7
10,EMC-BAC-2,0.86
11,NCI-H2085,0.964
12,Calu-6,0.914
13,HCC-366,0.784
14,NCI-H1666,0.703
15,NCI-H596,1.05
16,LK-2,0.686
17,NCI-H2087,0.867
18,SK-MES-1,1.08
19,H3255,0.916
